The results in this text go back to ChEMBL document CHEMBL5442219.

What all share (settings): Compound concentration 10 µM
In experiment [1] the target is 5-hydroxytryptamine receptor 1E (Homo sapiens) (UniProt P28566).
Description: PDSP Primary Binding target: HTR1E - Compounds are tested at 10 uM concentration, plate are incubated at room temperature in the dark for 90 minutes. Reaction are stopped by vacuum filtration onto 0.3% polyethyleneimine soaked filter mats using Filtermate harvester. Scintilation cocktail is then melted onto microwave-dried filters on a hot plate and the radio activity is counted in Microbia counter.
Experiment [2] deals with Kappa-type opioid receptor (Homo sapiens) (UniProt P41145).
Description: PDSP Primary Binding target: OPRK1 - Compounds are tested at 10 uM concentration, plate are incubated at room temperature in the dark for 90 minutes. Reaction are stopped by vacuum filtration onto 0.3% polyethyleneimine soaked filter mats using Filtermate harvester. Scintilation cocktail is then melted onto microwave-dried filters on a hot plate and the radio activity is counted in Microbia counter.
The target of experiment [3] is Sigma intracellular receptor 2 (Homo sapiens) (UniProt Q5BJF2).
Description: PDSP Primary Binding target: TMEM97 - Compounds are tested at 10 uM concentration, plate are incubated at room temperature in the dark for 90 minutes. Reaction are stopped by vacuum filtration onto 0.3% polyethyleneimine soaked filter mats using Filtermate harvester. Scintilation cocktail is then melted onto microwave-dried filters on a hot plate and the radio activity is counted in Microbia counter.
Experiment [4] deals with Beta-1 adrenergic receptor (Homo sapiens) (UniProt P08588).
Description: PDSP Primary Binding target: ADRB1 - Compounds are tested at 10 uM concentration, plate are incubated at room temperature in the dark for 90 minutes. Reaction are stopped by vacuum filtration onto 0.3% polyethyleneimine soaked filter mats using Filtermate harvester. Scintilation cocktail is then melted onto microwave-dried filters on a hot plate and the radio activity is counted in Microbia counter.
The target of experiment [5] is 5-hydroxytryptamine receptor 7 (Homo sapiens) (UniProt P34969).
Chain of 5-hydroxytryptamine receptor 7 (Homo sapiens) (P34969 whole entry): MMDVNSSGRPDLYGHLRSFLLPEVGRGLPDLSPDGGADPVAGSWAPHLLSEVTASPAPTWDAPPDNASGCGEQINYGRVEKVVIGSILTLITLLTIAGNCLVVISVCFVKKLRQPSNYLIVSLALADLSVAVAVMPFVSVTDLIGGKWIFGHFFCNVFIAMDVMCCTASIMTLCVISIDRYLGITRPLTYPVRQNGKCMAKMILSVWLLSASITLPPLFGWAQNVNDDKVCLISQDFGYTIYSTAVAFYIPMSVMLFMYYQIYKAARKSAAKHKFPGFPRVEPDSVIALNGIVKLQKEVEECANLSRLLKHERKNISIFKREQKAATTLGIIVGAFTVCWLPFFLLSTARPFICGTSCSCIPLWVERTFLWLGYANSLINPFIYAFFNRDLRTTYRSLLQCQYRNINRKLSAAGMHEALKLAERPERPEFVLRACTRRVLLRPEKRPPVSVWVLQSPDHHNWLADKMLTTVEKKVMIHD
Description: PDSP Primary Binding target: HTR7 - Compounds are tested at 10 uM concentration, plate are incubated at room temperature in the dark for 90 minutes. Reaction are stopped by vacuum filtration onto 0.3% polyethyleneimine soaked filter mats using Filtermate harvester. Scintilation cocktail is then melted onto microwave-dried filters on a hot plate and the radio activity is counted in Microbia counter.
Experiment [6] concerns the target D(1A) dopamine receptor (Homo sapiens) (UniProt P21728).
Description: PDSP Primary Binding target: DRD1 - Compounds are tested at 10 uM concentration, plate are incubated at room temperature in the dark for 90 minutes. Reaction are stopped by vacuum filtration onto 0.3% polyethyleneimine soaked filter mats using Filtermate harvester. Scintilation cocktail is then melted onto microwave-dried filters on a hot plate and the radio activity is counted in Microbia counter.
Experiment [7] has as its target D(1B) dopamine receptor (Homo sapiens) (UniProt P21918).
Description: PDSP Primary Binding target: DRD5 - Compounds are tested at 10 uM concentration, plate are incubated at room temperature in the dark for 90 minutes. Reaction are stopped by vacuum filtration onto 0.3% polyethyleneimine soaked filter mats using Filtermate harvester. Scintilation cocktail is then melted onto microwave-dried filters on a hot plate and the radio activity is counted in Microbia counter.
Experiment [8] deals with 5-hydroxytryptamine receptor 1B (Homo sapiens) (UniProt P28222).
Description: PDSP Primary Binding target: HTR1B - Compounds are tested at 10 uM concentration, plate are incubated at room temperature in the dark for 90 minutes. Reaction are stopped by vacuum filtration onto 0.3% polyethyleneimine soaked filter mats using Filtermate harvester. Scintilation cocktail is then melted onto microwave-dried filters on a hot plate and the radio activity is counted in Microbia counter.
The target in experiment [9] is T1, 5-hydroxytryptamine receptor 3A (Homo sapiens) (UniProt P46098).
T1 sequence (whole entry): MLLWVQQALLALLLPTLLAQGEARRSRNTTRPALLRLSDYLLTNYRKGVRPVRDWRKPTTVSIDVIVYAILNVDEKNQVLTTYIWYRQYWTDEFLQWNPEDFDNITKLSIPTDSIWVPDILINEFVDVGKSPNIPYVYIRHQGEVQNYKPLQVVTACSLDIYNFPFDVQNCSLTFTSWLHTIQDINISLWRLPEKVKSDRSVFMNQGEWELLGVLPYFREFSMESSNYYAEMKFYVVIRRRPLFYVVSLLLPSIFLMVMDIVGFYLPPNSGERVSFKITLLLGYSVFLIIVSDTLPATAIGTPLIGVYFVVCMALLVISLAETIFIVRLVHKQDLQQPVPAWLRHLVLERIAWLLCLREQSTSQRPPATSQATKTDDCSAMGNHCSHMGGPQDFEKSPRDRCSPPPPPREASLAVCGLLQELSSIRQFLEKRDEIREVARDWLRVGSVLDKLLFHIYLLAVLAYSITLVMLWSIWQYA
Description: PDSP Primary Binding target: HTR3A - Compounds are tested at 10 uM concentration, plate are incubated at room temperature in the dark for 90 minutes. Reaction are stopped by vacuum filtration onto 0.3% polyethyleneimine soaked filter mats using Filtermate harvester. Scintilation cocktail is then melted onto microwave-dried filters on a hot plate and the radio activity is counted in Microbia counter.

For experiment [10], the target named is T2, Muscarinic acetylcholine receptor M2 (Homo sapiens) (UniProt P08172).
T2 sequence (whole entry): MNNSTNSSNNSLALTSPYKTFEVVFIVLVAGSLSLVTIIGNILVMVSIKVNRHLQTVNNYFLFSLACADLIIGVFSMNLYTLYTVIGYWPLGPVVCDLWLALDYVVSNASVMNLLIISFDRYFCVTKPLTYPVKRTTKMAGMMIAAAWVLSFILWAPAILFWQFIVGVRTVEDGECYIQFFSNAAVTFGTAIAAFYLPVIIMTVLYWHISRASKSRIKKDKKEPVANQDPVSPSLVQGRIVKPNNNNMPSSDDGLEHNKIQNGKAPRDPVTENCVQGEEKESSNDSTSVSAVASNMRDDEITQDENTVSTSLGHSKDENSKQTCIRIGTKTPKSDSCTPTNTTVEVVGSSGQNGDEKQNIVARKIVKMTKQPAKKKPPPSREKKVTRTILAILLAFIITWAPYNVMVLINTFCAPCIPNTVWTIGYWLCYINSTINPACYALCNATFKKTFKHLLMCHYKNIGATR
Description: PDSP Primary Binding target: CHRM2 - Compounds are tested at 10 uM concentration, plate are incubated at room temperature in the dark for 90 minutes. Reaction are stopped by vacuum filtration onto 0.3% polyethyleneimine soaked filter mats using Filtermate harvester. Scintilation cocktail is then melted onto microwave-dried filters on a hot plate and the radio activity is counted in Microbia counter.

Experiment [11] deals with D(2) dopamine receptor (Homo sapiens) (UniProt P14416).
Description: PDSP Primary Binding target: DRD2 - Compounds are tested at 10 uM concentration, plate are incubated at room temperature in the dark for 90 minutes. Reaction are stopped by vacuum filtration onto 0.3% polyethyleneimine soaked filter mats using Filtermate harvester. Scintilation cocktail is then melted onto microwave-dried filters on a hot plate and the radio activity is counted in Microbia counter.
Experiment [12] addresses Sigma non-opioid intracellular receptor 1 (Homo sapiens) (UniProt Q99720).
Description: PDSP Primary Binding target: SIGMAR1 - Compounds are tested at 10 uM concentration, plate are incubated at room temperature in the dark for 90 minutes. Reaction are stopped by vacuum filtration onto 0.3% polyethyleneimine soaked filter mats using Filtermate harvester. Scintilation cocktail is then melted onto microwave-dried filters on a hot plate and the radio activity is counted in Microbia counter.
Experiment [13] concerns the target Histamine H3 receptor (Homo sapiens) (UniProt Q9Y5N1).
Description: PDSP Primary Binding target: HRH3 - Compounds are tested at 10 uM concentration, plate are incubated at room temperature in the dark for 90 minutes. Reaction are stopped by vacuum filtration onto 0.3% polyethyleneimine soaked filter mats using Filtermate harvester. Scintilation cocktail is then melted onto microwave-dried filters on a hot plate and the radio activity is counted in Microbia counter.
Experiment [14] has as its target T3, Alpha-1A adrenergic receptor (Homo sapiens) (UniProt P35348).
T3 sequence (whole entry): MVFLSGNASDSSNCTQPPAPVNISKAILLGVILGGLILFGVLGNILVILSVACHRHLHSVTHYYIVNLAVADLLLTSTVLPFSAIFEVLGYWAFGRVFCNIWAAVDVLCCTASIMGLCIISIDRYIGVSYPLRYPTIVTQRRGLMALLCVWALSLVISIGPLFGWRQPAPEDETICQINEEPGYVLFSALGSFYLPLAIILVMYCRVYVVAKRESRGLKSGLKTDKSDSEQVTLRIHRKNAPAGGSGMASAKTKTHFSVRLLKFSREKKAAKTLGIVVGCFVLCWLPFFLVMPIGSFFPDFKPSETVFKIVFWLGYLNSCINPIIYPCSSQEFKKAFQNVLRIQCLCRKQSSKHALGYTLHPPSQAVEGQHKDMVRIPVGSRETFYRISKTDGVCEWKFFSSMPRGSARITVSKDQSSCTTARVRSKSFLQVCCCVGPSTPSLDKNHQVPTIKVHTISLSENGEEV
Description: PDSP Primary Binding target: ADRA1A - Compounds are tested at 10 uM concentration, plate are incubated at room temperature in the dark for 90 minutes. Reaction are stopped by vacuum filtration onto 0.3% polyethyleneimine soaked filter mats using Filtermate harvester. Scintilation cocktail is then melted onto microwave-dried filters on a hot plate and the radio activity is counted in Microbia counter.

Experiment [15] has as its target Delta-type opioid receptor (Homo sapiens) (UniProt P41143).
Description: PDSP Primary Binding target: OPRD1 - Compounds are tested at 10 uM concentration, plate are incubated at room temperature in the dark for 90 minutes. Reaction are stopped by vacuum filtration onto 0.3% polyethyleneimine soaked filter mats using Filtermate harvester. Scintilation cocktail is then melted onto microwave-dried filters on a hot plate and the radio activity is counted in Microbia counter.
Experiment [16] deals with 5-hydroxytryptamine receptor 2A (Homo sapiens) (UniProt P28223).
Chain of 5-hydroxytryptamine receptor 2A (Homo sapiens) (P28223 whole entry): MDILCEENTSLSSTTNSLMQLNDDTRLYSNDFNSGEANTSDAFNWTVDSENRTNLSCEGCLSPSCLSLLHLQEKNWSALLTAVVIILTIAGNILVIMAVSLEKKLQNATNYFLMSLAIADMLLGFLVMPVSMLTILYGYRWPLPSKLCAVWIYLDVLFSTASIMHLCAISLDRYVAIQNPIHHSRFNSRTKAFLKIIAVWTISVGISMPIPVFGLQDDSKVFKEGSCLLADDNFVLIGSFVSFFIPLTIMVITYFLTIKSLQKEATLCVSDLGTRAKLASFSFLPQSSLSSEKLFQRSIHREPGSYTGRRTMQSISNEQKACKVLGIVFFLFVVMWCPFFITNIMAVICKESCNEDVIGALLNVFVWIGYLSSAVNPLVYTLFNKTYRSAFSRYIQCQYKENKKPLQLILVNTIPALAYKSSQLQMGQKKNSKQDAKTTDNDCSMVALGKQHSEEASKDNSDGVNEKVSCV
Description: PDSP Primary Binding target: HTR2A - Compounds are tested at 10 uM concentration, plate are incubated at room temperature in the dark for 90 minutes. Reaction are stopped by vacuum filtration onto 0.3% polyethyleneimine soaked filter mats using Filtermate harvester. Scintilation cocktail is then melted onto microwave-dried filters on a hot plate and the radio activity is counted in Microbia counter.
Experiment [17] deals with Translocator protein (Homo sapiens) (UniProt P30536).
Chain of Translocator protein (Homo sapiens) (P30536 whole entry): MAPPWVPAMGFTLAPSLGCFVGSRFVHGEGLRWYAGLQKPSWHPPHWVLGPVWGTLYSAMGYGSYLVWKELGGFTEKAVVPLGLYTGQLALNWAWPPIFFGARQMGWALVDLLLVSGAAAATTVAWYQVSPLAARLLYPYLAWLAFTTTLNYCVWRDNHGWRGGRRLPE
Description: PDSP Primary Binding target: TSPO - Compounds are tested at 10 uM concentration, plate are incubated at room temperature in the dark for 90 minutes. Reaction are stopped by vacuum filtration onto 0.3% polyethyleneimine soaked filter mats using Filtermate harvester. Scintilation cocktail is then melted onto microwave-dried filters on a hot plate and the radio activity is counted in Microbia counter.
Experiment [18] concerns the target Sodium-dependent serotonin transporter (Homo sapiens) (UniProt P31645).
Description: PDSP Primary Binding target: SLC6A4 - Compounds are tested at 10 uM concentration, plate are incubated at room temperature in the dark for 90 minutes. Reaction are stopped by vacuum filtration onto 0.3% polyethyleneimine soaked filter mats using Filtermate harvester. Scintilation cocktail is then melted onto microwave-dried filters on a hot plate and the radio activity is counted in Microbia counter.
For experiment [19], the target named is T4, Alpha-2C adrenergic receptor (Homo sapiens) (UniProt P18825).
T4 sequence (whole entry): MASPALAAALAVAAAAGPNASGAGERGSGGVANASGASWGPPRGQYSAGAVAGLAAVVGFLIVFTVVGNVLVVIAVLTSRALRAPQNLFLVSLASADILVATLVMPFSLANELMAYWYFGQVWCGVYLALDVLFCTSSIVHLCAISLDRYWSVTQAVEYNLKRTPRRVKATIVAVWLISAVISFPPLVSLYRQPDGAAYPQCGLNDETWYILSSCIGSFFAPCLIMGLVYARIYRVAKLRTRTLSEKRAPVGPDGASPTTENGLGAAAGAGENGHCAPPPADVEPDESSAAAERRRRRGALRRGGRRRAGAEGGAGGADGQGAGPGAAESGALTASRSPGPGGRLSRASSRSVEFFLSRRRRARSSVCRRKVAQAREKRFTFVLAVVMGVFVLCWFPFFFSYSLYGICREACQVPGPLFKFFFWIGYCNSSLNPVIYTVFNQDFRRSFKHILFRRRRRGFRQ
Description: PDSP Primary Binding target: ADRA2C - Compounds are tested at 10 uM concentration, plate are incubated at room temperature in the dark for 90 minutes. Reaction are stopped by vacuum filtration onto 0.3% polyethyleneimine soaked filter mats using Filtermate harvester. Scintilation cocktail is then melted onto microwave-dried filters on a hot plate and the radio activity is counted in Microbia counter.

For experiment [20], the target named is 5-hydroxytryptamine receptor 6 (Homo sapiens) (UniProt P50406).
Chain of 5-hydroxytryptamine receptor 6 (Homo sapiens) (P50406 whole entry): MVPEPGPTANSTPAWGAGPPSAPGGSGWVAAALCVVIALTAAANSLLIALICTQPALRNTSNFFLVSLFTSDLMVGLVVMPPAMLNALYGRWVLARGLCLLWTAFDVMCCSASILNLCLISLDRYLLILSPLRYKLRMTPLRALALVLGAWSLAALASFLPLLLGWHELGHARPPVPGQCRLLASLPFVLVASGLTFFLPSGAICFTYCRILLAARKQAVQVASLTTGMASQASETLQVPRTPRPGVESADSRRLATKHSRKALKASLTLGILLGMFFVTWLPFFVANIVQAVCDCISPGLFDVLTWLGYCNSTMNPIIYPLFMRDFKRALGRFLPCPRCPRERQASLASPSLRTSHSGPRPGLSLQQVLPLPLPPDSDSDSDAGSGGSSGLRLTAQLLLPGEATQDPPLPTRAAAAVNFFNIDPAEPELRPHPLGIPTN
Description: PDSP Primary Binding target: HTR6 - Compounds are tested at 10 uM concentration, plate are incubated at room temperature in the dark for 90 minutes. Reaction are stopped by vacuum filtration onto 0.3% polyethyleneimine soaked filter mats using Filtermate harvester. Scintilation cocktail is then melted onto microwave-dried filters on a hot plate and the radio activity is counted in Microbia counter.

Each structure is given as a SMILES string.

Chain of D(1A) dopamine receptor (Homo sapiens) (P21728 whole entry): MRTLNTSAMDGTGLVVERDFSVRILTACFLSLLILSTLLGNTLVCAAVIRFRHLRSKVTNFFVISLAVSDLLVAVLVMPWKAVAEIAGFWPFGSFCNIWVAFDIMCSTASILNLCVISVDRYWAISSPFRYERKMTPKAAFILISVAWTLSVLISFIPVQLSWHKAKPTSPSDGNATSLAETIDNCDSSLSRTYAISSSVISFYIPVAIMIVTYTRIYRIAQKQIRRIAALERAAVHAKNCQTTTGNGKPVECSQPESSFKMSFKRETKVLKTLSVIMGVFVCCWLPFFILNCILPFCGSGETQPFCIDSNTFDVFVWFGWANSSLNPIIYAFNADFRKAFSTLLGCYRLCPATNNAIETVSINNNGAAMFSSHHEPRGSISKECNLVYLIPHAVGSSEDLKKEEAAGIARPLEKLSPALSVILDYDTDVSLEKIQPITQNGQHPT
Chain of Histamine H3 receptor (Homo sapiens) (Q9Y5N1 whole entry): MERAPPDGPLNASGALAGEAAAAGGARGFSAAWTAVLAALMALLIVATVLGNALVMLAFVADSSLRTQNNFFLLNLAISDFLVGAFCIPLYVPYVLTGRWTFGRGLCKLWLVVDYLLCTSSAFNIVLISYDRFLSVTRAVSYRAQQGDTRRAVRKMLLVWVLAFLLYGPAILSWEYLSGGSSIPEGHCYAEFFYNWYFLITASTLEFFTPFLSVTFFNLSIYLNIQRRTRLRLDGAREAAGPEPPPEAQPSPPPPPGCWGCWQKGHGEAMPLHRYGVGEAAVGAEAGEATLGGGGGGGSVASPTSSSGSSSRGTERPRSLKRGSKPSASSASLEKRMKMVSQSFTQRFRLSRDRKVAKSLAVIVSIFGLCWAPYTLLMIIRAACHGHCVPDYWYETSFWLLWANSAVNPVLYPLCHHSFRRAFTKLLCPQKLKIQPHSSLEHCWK
Chain of Kappa-type opioid receptor (Homo sapiens) (P41145 whole entry): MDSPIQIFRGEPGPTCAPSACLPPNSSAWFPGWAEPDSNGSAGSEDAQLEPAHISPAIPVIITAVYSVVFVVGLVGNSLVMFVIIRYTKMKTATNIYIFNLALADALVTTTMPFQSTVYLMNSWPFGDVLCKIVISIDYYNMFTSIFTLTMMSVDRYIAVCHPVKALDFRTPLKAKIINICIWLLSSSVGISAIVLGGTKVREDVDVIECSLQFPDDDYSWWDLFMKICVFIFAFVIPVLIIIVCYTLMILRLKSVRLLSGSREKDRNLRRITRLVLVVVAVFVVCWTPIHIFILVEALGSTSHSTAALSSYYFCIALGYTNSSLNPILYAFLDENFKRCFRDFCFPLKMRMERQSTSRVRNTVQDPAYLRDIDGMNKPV
Chain of D(1B) dopamine receptor (Homo sapiens) (P21918 whole entry): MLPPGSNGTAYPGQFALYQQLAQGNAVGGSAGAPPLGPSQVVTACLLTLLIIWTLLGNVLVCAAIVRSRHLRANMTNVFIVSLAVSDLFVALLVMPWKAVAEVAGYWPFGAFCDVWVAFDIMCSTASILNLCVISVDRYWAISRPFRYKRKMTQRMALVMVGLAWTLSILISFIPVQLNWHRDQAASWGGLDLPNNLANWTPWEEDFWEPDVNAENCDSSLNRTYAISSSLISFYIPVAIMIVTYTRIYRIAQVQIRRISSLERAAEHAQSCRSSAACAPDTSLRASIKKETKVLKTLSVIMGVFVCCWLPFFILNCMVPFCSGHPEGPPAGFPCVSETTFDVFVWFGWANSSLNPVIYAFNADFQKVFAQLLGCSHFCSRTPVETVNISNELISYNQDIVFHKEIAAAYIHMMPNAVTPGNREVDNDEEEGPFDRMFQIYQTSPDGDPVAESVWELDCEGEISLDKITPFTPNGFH
Chain of 5-hydroxytryptamine receptor 1E (Homo sapiens) (P28566 whole entry): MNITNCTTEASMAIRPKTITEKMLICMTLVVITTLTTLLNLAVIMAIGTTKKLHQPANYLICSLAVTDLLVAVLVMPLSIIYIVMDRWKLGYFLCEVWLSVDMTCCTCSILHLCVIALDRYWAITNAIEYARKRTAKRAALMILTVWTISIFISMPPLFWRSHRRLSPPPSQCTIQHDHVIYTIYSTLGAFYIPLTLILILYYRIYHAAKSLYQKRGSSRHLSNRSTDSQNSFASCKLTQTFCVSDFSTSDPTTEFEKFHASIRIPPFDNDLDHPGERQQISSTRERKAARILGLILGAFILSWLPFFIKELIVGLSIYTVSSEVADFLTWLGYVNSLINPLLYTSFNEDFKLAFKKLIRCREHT
Chain of Beta-1 adrenergic receptor (Homo sapiens) (P08588 whole entry, looked up): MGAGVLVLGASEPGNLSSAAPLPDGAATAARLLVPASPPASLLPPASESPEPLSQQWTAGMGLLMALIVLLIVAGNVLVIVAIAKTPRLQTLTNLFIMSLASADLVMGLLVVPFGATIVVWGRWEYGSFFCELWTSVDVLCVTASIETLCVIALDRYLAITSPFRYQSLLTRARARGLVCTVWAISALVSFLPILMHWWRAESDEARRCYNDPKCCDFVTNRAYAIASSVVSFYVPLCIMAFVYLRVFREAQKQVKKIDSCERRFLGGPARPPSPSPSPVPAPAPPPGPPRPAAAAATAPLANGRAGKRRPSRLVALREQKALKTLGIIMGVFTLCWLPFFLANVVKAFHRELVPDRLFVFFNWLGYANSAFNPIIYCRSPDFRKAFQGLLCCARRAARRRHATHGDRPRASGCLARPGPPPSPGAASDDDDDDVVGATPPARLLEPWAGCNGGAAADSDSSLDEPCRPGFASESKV
Chain of Delta-type opioid receptor (Homo sapiens) (P41143 whole entry): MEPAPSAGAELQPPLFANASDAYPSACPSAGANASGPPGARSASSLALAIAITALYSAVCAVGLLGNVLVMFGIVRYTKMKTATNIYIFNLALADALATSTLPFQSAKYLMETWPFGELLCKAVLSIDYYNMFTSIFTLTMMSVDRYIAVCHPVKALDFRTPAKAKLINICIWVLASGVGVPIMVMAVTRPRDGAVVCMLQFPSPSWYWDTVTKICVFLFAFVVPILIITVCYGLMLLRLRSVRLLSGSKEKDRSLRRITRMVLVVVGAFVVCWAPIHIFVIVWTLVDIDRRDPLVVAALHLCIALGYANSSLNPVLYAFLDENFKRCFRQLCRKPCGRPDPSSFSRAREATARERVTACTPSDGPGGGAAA
Chain of Sigma non-opioid intracellular receptor 1 (Homo sapiens) (Q99720 whole entry): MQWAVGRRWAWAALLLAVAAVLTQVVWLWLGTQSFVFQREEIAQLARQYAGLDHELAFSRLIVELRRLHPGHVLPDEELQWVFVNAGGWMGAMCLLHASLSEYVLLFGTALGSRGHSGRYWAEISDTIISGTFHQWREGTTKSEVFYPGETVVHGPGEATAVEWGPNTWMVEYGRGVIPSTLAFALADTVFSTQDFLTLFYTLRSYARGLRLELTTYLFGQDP
Chain of Sigma intracellular receptor 2 (Homo sapiens) (Q5BJF2 whole entry): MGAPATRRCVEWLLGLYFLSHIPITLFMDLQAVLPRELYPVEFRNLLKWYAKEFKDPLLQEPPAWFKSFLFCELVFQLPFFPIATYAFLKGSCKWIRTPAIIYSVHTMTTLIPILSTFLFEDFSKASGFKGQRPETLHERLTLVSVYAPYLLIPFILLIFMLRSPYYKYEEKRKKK

As to `OC[C@H]1O[C@@H](n2cnc3c(NC4CCCC4)ncnc32)[C@H](O)[C@@H]1O`, the inhibition (usually the drop in the measured response relative to a control, in per cent) in experiment [1] is -3.16%; in [2], -5.12%; in experiment [3], 14.2%; in experiment [4], 1.3%; in experiment [5], 16.1%; in [6] it was -1.28%. The inhibition in experiment [7] is 80.8%; in experiment [8] it was 15.9%; in experiment [9], 3.29%; in experiment [10], 7.74%; in experiment [11] it was 25%; in experiment [12], 51.9%. Also, the inhibition was 7.78% in experiment [13], -0.37% in experiment [14], -3.21% in experiment [15] and -8.74% in [16].
For `CN(C)S(=O)(=O)c1ccc(NC(=S)N2CCC(C(O)(c3ccccc3)c3ccccc3)CC2)cc1`, the inhibition in experiment [1] is 7.01%; in experiment [17], 75.4%; in [2] it was 12.3%; in experiment [3], 95.2%; in [6] it was 21.9%; in [18], 16%. Further, the inhibition in experiment [19] is 21.8%; in experiment [7] it was 5.17%; in experiment [9] it was -8.86%; in [20], 8.14%; in [11], 23.4%; in [12], 45.3%. For the same compound, the inhibition was -0.67% in experiment [14], 10.2% in [15] and 11% in experiment [16].
On to `CC1(C)SSC(C)(C)[C@@H](NC(=O)[C@@H](N)Cc2ccc(O)cc2)C(=O)NCC(=O)N[C@@H](Cc2ccccc2)C(=O)N[C@H]1C(=O)O`, for which the inhibition was 17.2% in experiment [1]; -4.89% in [2]; 22.6% in experiment [3]; -5.41% in experiment [4]; -0.55% in [5]; 11.4% in experiment [6]. Further, the inhibition in experiment [19] is -6.75%; in experiment [7] it was 3.84%; in experiment [8], 7.79%; in experiment [10], -9.99%; in experiment [11], 30.3%; in [12], 21.7%. In addition, the inhibition was -2.58% in [13], -6.07% in [14] and 24.5% in experiment [16].
For the compound `CN1C[C@H](C(=O)N[C@]2(C)O[C@@]3(O)[C@@H]4CCCN4C(=O)[C@H](Cc4ccccc4)N3C2=O)C[C@@H]2c3cccc4[nH]cc(c34)C[C@H]21`, the inhibition in experiment [1] was 76.1%; in experiment [17], 19%; in experiment [2] it was 15.5%; in [3], 93.6%; in experiment [4], 17.8%; in experiment [5], 91.3%. Further, the inhibition was 36.3% in experiment [6]; 115% in [19]; 78.7% in experiment [7]; 104% in [8]; 1.05% in [9]; 97.4% in experiment [20]. For the same compound, the inhibition in [10] was 4.48%; in experiment [11] it was 100%; in [12] it was 72.9%; in experiment [13], 38.2%; in experiment [14], 99.4%; in [15] it was 14.2%.
Regarding `CC(C)NCC(O)COc1cccc2[nH]ccc12` (stereo not given), the inhibition was 20% in [1]; 38.5% in [17]; 46.9% in experiment [2]; 97.5% in experiment [3]; 70.9% in experiment [4]; 37.8% in [5]. Also, the inhibition is 29.3% in [6]; 1.35% in experiment [19]; 26.3% in [7]; 22% in [8]; -0.98% in experiment [9]; 4.75% in experiment [20]. Further, the inhibition in [10] was -9.11%; in [11], 30.5%; in experiment [12], 38.7%; in experiment [14], 32%; in experiment [15], -2.56%.
`NC[C@H](O)c1ccc(O)c(O)c1`: the inhibition in experiment [1] is 1.24%; in experiment [17] it was 4.34%; in [2], 0.54%; in [3], 24.6%; in [4], 66.2%; in experiment [5] it was -5%. Besides, the inhibition in [6] is 2.57%; in [19], 79.4%; in experiment [7], 34.8%; in experiment [8] it was 10.7%; in [9], -8.31%; in experiment [10] it was -6.81%. Besides, the inhibition in experiment [11] is 6.01%; in experiment [12], 39.1%; in [14] it was 7.82%; in experiment [15], -5.14%; in experiment [16], 10.9%.
For `COc1cc2nc(N3CCN(C(=O)c4ccco4)CC3)nc(N)c2cc1OC`, the inhibition in [1] is 2.33%; in [17], 75.9%; in experiment [2], 11%; in experiment [3], 27.6%; in [4] it was 2.66%; in [5], 23.8%. Further, the inhibition in experiment [6] is 22.2%; in [19], 97.1%; in experiment [7], 7.69%; in experiment [8], 27.2%; in experiment [9] it was 2.09%; in [20], 19.4%. For the same compound, the inhibition in [10] is 15.9%; in [11] it was 49.2%; in experiment [12], 68%; in experiment [13] it was 8.21%; in experiment [14], 98.7%; in [15], 4.29%.
Consider `Cc1c(F)cccc1NC(=O)Nc1ccc(Cl)c(S(=O)(=O)[C@H]2CCCNC2)c1O`, for which the inhibition in experiment [1] is -6.67%; in experiment [17] it was 8.9%; in [2] it was -8.19%; in [5], -3.91%; in [18], -2.95%; in experiment [19], -6.11%. Besides, the inhibition in experiment [7] was 3.67%; in experiment [8], 8.6%; in experiment [20] it was -2.87%; in [11] it was 11.7%; in experiment [12], 9.71%; in experiment [14] it was 19.2%. Besides, the inhibition was -5.71% in experiment [15] and -0.14% in experiment [16].
